Consider 27 compounds from patent publication US8486374B2, “Hydrophilic, non-aqueous pharmaceutical carriers and compositions and uses” (Foamix Ltd., priority 2004, dated 2013).

The structures appear in SMILES notation. Where a name gives a salt, the structure may show the parent alone.

The conditions of data set [1]: anti-inflammatory steroids at typical concentration in topical products (triamcinolone acetonide 0.025%-0.1% medium, 0.5% high); cited from earlier work.
The nature of data set [2]: Foam appearance (color, odor, form). Format: physicochemical. Further details: key to ODOR: No odor (N.O.); key to COLOR: white (W).
Data set [3] is described as follows: Shakability of the composition. Format: physicochemical. An excerpt: ‘Shakability’ means that the composition contains some or sufficient flow to allow the composition to be mixed or remixed on shaking. That is, it has fluid or semi fluid properties. A breakable foam is that is thermally stable, yet breaks under sheer force.
‘Shakability’ means that the composition contains some or sufficient flow to allow the composition to be mixed or remixed on shaking. That is, it has fluid or semi fluid properties. In some very limited cases it may still be possible to have a foamable composition which is flowable but not apparently shakable.

Data set [4] in a line: Predicted physical characteristics of the resultant foam after adding an active agent. The settings on record: predicted on adding the active (BMV […] w/w; estradiol hemihydrate about 0.0051% w/w) with modulating agent to the carrier of the example at the place. Format: physicochemical.
The nature of data set [5]: Chemical stability: amount of active agent in foam by HPLC on storage. Format: physicochemical. The protocol:
The amount of active agent present is analyzed in foam expelled from various pressurized canisters containing foam formulations using HPLC. Analysis is carried out at zero time and at appropriate time intervals thereafter. The canisters are stored in controlled temperature incubators at 5° C., at 25° C., at, 40° C. and at 50° C. At appropriate time intervals canisters are removed and the amount of active agent in the foam sample is measured. […] All samples were stored at 50° C. for 4 weeks, in order to assess their stability. The following table provides the results of this short-term stability study, which indicated high compatibility between the polyol composition and the steroid drugs, which are known to be temperature-sensitive.

Where [6] appears, read: active agent in stock of PEG-400 97.5, hydroxypropyl cellulose 0.5, steareth 2 2.0 (first Example 29).
Where [7] appears, read: active agent in stock of propylene glycol 46, glycerin 33, dimethyl isosorbide 15, stearyl alcohol, hydroxypropyl cellulose, laureth-4, GMS/PEG 100 stearate (Example 30).
Where [8] appears, read: active agent in stock of propylene glycol 91, stearyl alcohol 2, Klucel EF 2, laureth-4 2, glyceryl monostearate/PEG 100 stearate 3 (second Example 29).

Take `CCC(=O)OCC(=O)[C@@]1(OC(=O)CC)[C@H](C)C[C@H]2[C@H]3[C@H]([C@@H](O)C[C@@]21C)[C@@]1(C)C=CC(=O)C=C1C[C@H]3Cl` [Alcometasone dipropionate]: the “Relative Potency” value in data set [1] was “Medium Potency”.
With `O=C(O)CCCCCCCC(=O)O` [Azelaic acid], the COLOR entry in data set [2] (setting [6]), in data set [2] (setting [7]) and in data set [2] (setting [8]) was “W” in each case. Moreover, the ODOR entry in data set [2] (setting [6]), in data set [2] (setting [7]) and in data set [2] (setting [8]) was “N.O” each time. Also, the SHAKABILITY entry in data set [3] (setting [6]), in data set [3] (setting [7]) and in data set [3] (setting [8]) was “Yes” throughout.
As for `O=C(OOC(=O)c1ccccc1)c1ccccc1` [Benzoyl peroxide], the COLOR result in data set [2] (setting [6]), in data set [2] (setting [7]) and in data set [2] (setting [8]) was “W” each time. Also, the ODOR entry in data set [2] (setting [6]), in data set [2] (setting [7]) and in data set [2] (setting [8]) was “N.O” in each case. Moreover, the SHAKABILITY result in data set [3] (setting [6]), in data set [3] (setting [7]) and in data set [3] (setting [8]) was “Yes” in each case.
In the case of `CCCCC(=O)O[C@]1(C(=O)CO)[C@@H](C)C[C@H]2[C@@H]3CCC4=CC(=O)C=C[C@]4(C)[C@@]3(F)[C@@H](O)C[C@@]21C` [Betamethasone 17 valerate micronized, Betamethasone 17 valerate], the “effect on the physical characteristics of the resultant foam” value in data set [4] is recorded as “minimal effect”. Moreover, the COLOR entry in data set [2] (setting [6]), in data set [2] (setting [7]) and in data set [2] (setting [8]) was “W” each time. Further, the ODOR result in data set [2] (setting [6]), in data set [2] (setting [7]) and in data set [2] (setting [8]) was “N.O” in each case. In addition, the “Relative Potency” value in data set [1] is “Medium Potency”. The SHAKABILITY entry in data set [3] (setting [6]), in data set [3] (setting [7]) and in data set [3] (setting [8]) was “Yes” each time.
With `C[C@H]1C[C@H]2[C@@H]3CCC4=CC(=O)C=C[C@]4(C)[C@@]3(F)[C@@H](O)C[C@]2(C)[C@@]1(OC(=O)c1ccccc1)C(=O)CO` [Betamethasone-17-benzoate], the “Relative Potency” value in data set [1] is on record as “High Potency”.
Consider `CCC(=O)OCC(=O)[C@@]1(OC(=O)CC)[C@@H](C)C[C@H]2[C@@H]3CCC4=CC(=O)C=C[C@]4(C)[C@@]3(F)[C@@H](O)C[C@@]21C` [Bethamethasone Dipropionate], for which the “Relative Potency” value in data set [1] is “High Potency”. In addition, in data set [5] (4 weeks), the “% Degradation after 4 weeks at 50° C.” value was 0%.
In the case of `Cn1c(=O)c2c(ncn2C)n(C)c1=O` [Caffeine], the COLOR entry in data set [2] (setting [6]), in data set [2] (setting [7]) and in data set [2] (setting [8]) was “W” throughout. Further, the ODOR result in data set [2] (setting [6]), in data set [2] (setting [7]) and in data set [2] (setting [8]) was “N.O” each time. Moreover, the SHAKABILITY result in data set [3] (setting [6]), in data set [3] (setting [7]) and in data set [3] (setting [8]) was “Yes” throughout.
In the case of `C=C1/C(=C\C=C2/CCC[C@]3(C)[C@@H]([C@H](C)/C=C/[C@@H](O)C4CC4)CC[C@@H]23)C[C@@H](O)C[C@@H]1O` [Calcipotriol hydrate], the COLOR result in data set [2] (setting [6]), in data set [2] (setting [7]) and in data set [2] (setting [8]) was “W” each time. Moreover, the ODOR entry in data set [2] (setting [6]), in data set [2] (setting [7]) and in data set [2] (setting [8]) was “N.O” each time. The SHAKABILITY entry in data set [3] (setting [6]), in data set [3] (setting [7]) and in data set [3] (setting [8]) was “Yes” throughout.
`Cc1cc(C2CCCCC2)n(O)c(=O)c1` [Ciclopiroxolamine]: the COLOR entry in data set [2] (setting [6]), in data set [2] (setting [7]) and in data set [2] (setting [8]) was “W” each time. Moreover, the ODOR result in data set [2] (setting [6]), in data set [2] (setting [7]) and in data set [2] (setting [8]) was “N.O” throughout. Moreover, the SHAKABILITY result in data set [3] (setting [6]), in data set [3] (setting [7]) and in data set [3] (setting [8]) was “Yes” in each case.
On to `CCC(=O)O[C@]1(C(=O)CCl)[C@@H](C)C[C@H]2[C@@H]3CCC4=CC(=O)C=C[C@]4(C)[C@@]3(F)[C@@H](O)C[C@@]21C` [Clobetasol Propionate], for which the “Relative Potency” value in data set [1] is “Highest Potency”.
Consider `CCCC(=O)O[C@]1(C(=O)CCl)[C@H](C)C[C@@H]2[C@@H]3CCC4=CC(=O)C=C[C@]4(C)[C@]3(F)C(=O)C[C@@]21C` [Clobetasone-17-butyrate], for which the “Relative Potency” value in data set [1] is on record as “Medium Potency”.
Regarding `CC1(C)O[C@@H]2C[C@H]3[C@@H]4CCC5=CC(=O)C=C[C@]5(C)[C@H]4[C@@H](O)C[C@]3(C)[C@]2(C(=O)CO)O1` [Desonide], the “Relative Potency” value in data set [1] is “Low Potency”.
In the case of `C[C@]12CC[C@@H]3c4ccc(O)cc4CC[C@H]3[C@@H]1CC[C@@H]2O` [Estradiol hemihydrate], the “effect on the physical characteristics of the resultant foam” value in data set [4] was “minimal effect”.
For `CC(=O)OCC(=O)[C@@]12OC(C)(C)O[C@@H]1C[C@H]1[C@@H]3C[C@H](F)C4=CC(=O)C=C[C@]4(C)[C@@]3(F)[C@@H](O)C[C@@]12C` [Flucinonide], the “Relative Potency” value in data set [1] is “Medium Potency”.
On to `CC1(C)O[C@@H]2C[C@H]3[C@@H]4C[C@H](F)C5=CC(=O)C=C[C@]5(C)[C@@]4(F)[C@@H](O)C[C@]3(C)[C@]2(C(=O)CO)O1` [Fluocinolone Acetonide], for which the “Relative Potency” value in data set [1] is given as “Medium Potency”.
Turning to `CC1(C)O[C@@H]2C[C@H]3[C@@H]4CCC5=CC(=O)CC[C@]5(C)[C@@]4(F)[C@@H](O)C[C@]3(C)[C@]2(C(=O)CCl)O1` [Halcinonide], in data set [1], the “Relative Potency” value is “High Potency”.
With `CC(=O)OCC(=O)[C@@]1(O)CC[C@H]2[C@@H]3CCC4=CC(=O)CC[C@]4(C)[C@H]3[C@@H](O)C[C@@]21C` [Hydrocortison Acetate], the “Relative Potency” value in data set [1] is reported as “Low Potency”.
As to `CCCC(=O)O[C@]1(C(=O)CO)CC[C@H]2[C@@H]3CCC4=CC(=O)CC[C@]4(C)[C@H]3[C@@H](O)C[C@@]21C` [Hydrocortison Butyrate], the “% Degradation after 4 weeks at 50° C.” value in data set [5] (steroid in TECH-PG 032, stored at 50° C. for 4 weeks) amounted to 2.6%; in data set [5] (steroid in TECH-PG 033, stored at 50° C. for 4 weeks), 2.8%.
With `C[C@]12CCC(=O)C=C1CC[C@@H]1[C@@H]2[C@@H](O)C[C@@]2(C)[C@H]1CC[C@]2(O)C(=O)CO` [Hydrocortisone], in data set [1], the “Relative Potency” value is on record as “Low Potency”.
As to `CC(=O)N1CCN(c2ccc(OCC3COC(Cn4ccnc4)(c4ccc(Cl)cc4Cl)O3)cc2)CC1` (centres unmarked) [Ketoconazole], the COLOR result in data set [2] (setting [6]) and in data set [2] (setting [8]) was “W” each time. Moreover, the ODOR entry in data set [2] (setting [6]) and in data set [2] (setting [8]) was “N.O” each time. For the same compound, the SHAKABILITY entry in data set [3] (setting [6]) and in data set [3] (setting [8]) was “Yes” each time.
Turning to `CCC(=O)O[C@]1(C(=O)COC(C)=O)CC[C@H]2[C@@H]3C[C@H](C)C4=CC(=O)C=C[C@]4(C)[C@H]3[C@@H](O)C[C@@]21C` [Methylprednisolone aceponate], the “Relative Potency” value in data set [1] is “High Potency”.
For `C[C@@H]1C[C@H]2[C@@H]3CCC4=CC(=O)C=C[C@]4(C)[C@@]3(Cl)[C@@H](O)C[C@]2(C)[C@@]1(OC(=O)c1ccco1)C(=O)CCl` [Mometasone furoate], in data set [1], the “Relative Potency” value was “Medium Potency”.
Consider `CC1(C)C(C=C(Cl)Cl)C1C(=O)OCc1cccc(Oc2ccccc2)c1` (stereo not drawn) [Permethrin BPC (cis:trans 25:75), Permethrin], for which the COLOR result in data set [2] (setting [6]) is on record as “W”; in data set [2] (setting [8]), “O.W”. The ODOR result is “N.O” in data set [2] (setting [6]) and “No” in data set [2] (setting [8]). Also, the SHAKABILITY entry in data set [3] (setting [6]) and in data set [3] (setting [8]) was “Yes” throughout.
As for `CN1C(C(=O)Nc2ccccn2)=C(O)c2ccccc2S1(=O)=O` [Piroxicam], the COLOR result in data set [2] (setting [6]) was “Light”; in data set [2] (setting [8]) it was “O.W”. Moreover, the figures for the ODOR entry in data set [2] (setting [6]) and in data set [2] (setting [8]) were “N.O” and “No”, respectively. Moreover, the SHAKABILITY result in data set [3] (setting [6]) and in data set [3] (setting [8]) was “Yes” each time.
On to `CCOC(=O)O[C@]1(C(=O)COC(=O)CC)CC[C@H]2[C@@H]3CCC4=CC(=O)C=C[C@]4(C)[C@H]3[C@@H](O)C[C@@]21C` [Prednicarbate], for which the “Relative Potency” value in data set [1] is given as “Medium Potency”.
In the case of `O=C(O)c1ccccc1O` [Salicylic acid], the figures for the COLOR entry in data set [2] (setting [6]) and in data set [2] (setting [8]) were “W” and “O.W”, respectively. Further, the ODOR result in data set [2] (setting [6]) is “N.O”; in data set [2] (setting [8]), “No”. The SHAKABILITY entry in data set [3] (setting [6]) and in data set [3] (setting [8]) was “Yes” in each case.
On to `CN(C/C=C/C#CC(C)(C)C)Cc1cccc2ccccc12` [Terbinafine HCl], for which the COLOR entry in data set [2] (setting [6]) and in data set [2] (setting [8]) was “W” each time. The ODOR entry in data set [2] (setting [6]) is recorded as “N.O”; in data set [2] (setting [8]) it was “No”. For the same compound, the SHAKABILITY result in data set [3] (setting [6]) and in data set [3] (setting [8]) was “Yes” in each case.
